The test has as its target Estrogen receptor beta (Homo sapiens, UniProt Q92731).

Sequence of Estrogen receptor beta (Q92731 whole entry): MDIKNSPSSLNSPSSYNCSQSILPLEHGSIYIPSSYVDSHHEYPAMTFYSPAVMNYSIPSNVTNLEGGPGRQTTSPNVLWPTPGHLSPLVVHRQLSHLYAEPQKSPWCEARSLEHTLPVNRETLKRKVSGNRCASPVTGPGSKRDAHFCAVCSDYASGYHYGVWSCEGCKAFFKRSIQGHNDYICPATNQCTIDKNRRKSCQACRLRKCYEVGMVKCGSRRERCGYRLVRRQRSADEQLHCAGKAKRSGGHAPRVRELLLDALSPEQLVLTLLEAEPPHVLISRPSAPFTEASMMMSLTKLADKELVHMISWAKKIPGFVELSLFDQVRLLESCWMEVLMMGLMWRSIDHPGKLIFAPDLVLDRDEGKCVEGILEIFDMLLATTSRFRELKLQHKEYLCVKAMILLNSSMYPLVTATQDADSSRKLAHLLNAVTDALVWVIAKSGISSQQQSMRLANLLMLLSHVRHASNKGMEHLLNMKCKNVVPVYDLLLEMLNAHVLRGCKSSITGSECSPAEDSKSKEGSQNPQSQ
Description: Antagonist activity at human ER-beta transfected in human HepG2 cells incubated for 24 hrs by 3xERE-driven luciferase reporter assay

In turn, `C=CCc1ccc(OC(=O)CCC)c(-c2ccc(O)c(CC=C)c2)c1` registered an IC50 of 1320 µM.

Values taken from ChEMBL document CHEMBL6127129 (J Nat Prod, 2024).
